We go through three molecules from paper PMC6965684, “Characterization of binding, functional activity, and contractile responses of the selective 5‐HT1F receptor agonist lasmiditan” (British Journal of Pharmacology, 2019).

Assay [1] addresses T1, 5-HT1F receptor (Homo sapiens, UniProt P30939).
T1 construct: gene HTR1F; full-length human recombinant receptor in CHO-K1 cells (Ogeda)
T1 sequence (P30939 1-366): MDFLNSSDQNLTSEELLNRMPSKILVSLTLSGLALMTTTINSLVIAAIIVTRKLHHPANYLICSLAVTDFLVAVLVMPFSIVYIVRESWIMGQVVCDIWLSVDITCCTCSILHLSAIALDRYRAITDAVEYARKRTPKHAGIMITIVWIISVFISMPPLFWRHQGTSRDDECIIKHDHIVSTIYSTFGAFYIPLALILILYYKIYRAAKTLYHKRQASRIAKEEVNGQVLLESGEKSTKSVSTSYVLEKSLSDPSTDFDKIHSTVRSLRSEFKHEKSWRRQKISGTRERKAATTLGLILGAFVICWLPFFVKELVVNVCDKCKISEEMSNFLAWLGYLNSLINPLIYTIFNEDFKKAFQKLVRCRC
Nature of the assay: cell-based. The arrangement: species or system CHO-K1; cAMP HTRF agonist assay, Gi coupled receptors, inhibition of stimulated cAMP. The following applies: cAMP. Here is the method: Concentration–response curves were performed in parallel with the agonists. For agonist tests, 12 μl of cells were mixed with 6 μl of the test compound (at increasing concentrations) and 6 μl of https://www.guidetopharmacology.org/GRAC/LigandDisplayForward?ligandId=5190 and then incubated for 30 min at room temperature. After addition of the lysis buffer and 1‐hr incubation, cAMP concentrations were estimated according to the manufacturer specification with the HTRF kit (Cisbio International, Codelet, France). In brief, increasing concentrations of agonists were added to stably transfected cells in buffer in an Optiplate (PerkinElmer Life Sciences, Massachusetts, USA). The plates were incubated, and cells were then lysed by the addition of HTRF reagents (cAMP‐Cryptate and anti‐cAMP‐d2 reagents) and diluted in lysis buffer, followed by incubation at room temperature. As 5‐HT1B receptors have been reported in naïve CHO‐K1 cells (George, Bungay, & Naylor, 1997), we also tested https://www.guidetopharmacology.org/GRAC/LigandDisplayForward?ligandId=4 (5‐CT, the reference agonist for the 5‐HT1B receptor), in CHO‐K1 cells transfected with a non‐5‐HT, GPCR. […] For the new assays developed in this study (i.e., 5‐ht1E receptor), the two independent pIC50 determined must be concordant with a 1 log unit interval for the assays to be validated. […]

Assay [2] deals with T1, 5-HT1F receptor. Nature of the assay: radioligand competition, CHO-K1 membranes. The note with it: radioligand listed in supplement Table S1; unreliable (pIC50 printed as <[…]). It is filed as binding. An excerpt:
radioligand competition, CHO-K1 membranes on 5-HT1F receptor

Counter-ions that a name gives are not always drawn.

On 5-HT1F receptor [1], `CNC1CCc2[nH]c3ccc(C(N)=O)cc3c2C1` (racemic) [Frovatriptan racemate] showed an EC50 of 0.0794 µM. As to `N#Cc1ccc(N2CCN(C(=O)COc3ccc4[nH]cc(CCN)c4c3)CC2)cc1` [Donitriptan hydrochloride], the “5-HT1F / pKi” value on 5-HT1F receptor [2] is recorded as 5.18 -log M. With `CN(C)[C@@H]1CCc2[nH]c3ccc(NC(=O)c4ccc(F)cc4)cc3c2C1` [LY344864 hydrochloride], at 5-HT1F receptor [1], the EC50 was 0.00191 µM.

Usually EC50 stands for the concentration needed to bring the measured effect to its halfway point.
